Reference: patent US20210309951A1, “USE OF NATURAL FLAVORS AND NATURAL SMOKE FLAVORS TO ENHANCE FUNCTIONALITY OF BUFFERED ORGANIC ACIDS AND METHODS FOR PRODUCING THE SAME” (Kerry Luxembourg S.à.r.I., priority 2020, published 2021)

Target: lysine residues on bovine serum albumin (Bos taurus, UniProt P02769)
Assay: Protein crosslinking method (reactivity with lysine residues)
Type: biochemical
Details: 30 mM working concentration, 70° C., BSA 10 mg/mL; among standard reference materials
Method: Selected active carbonyl compounds (glycolaldehyde, glyoxal, methyl glyoxal, and other carbonyls) were compared for their protein crosslinking capability. Standard reference materials were purchased from Sigma Aldrich [Glycolaldehyde (material no. G6805-5G, batch no. STBG0623V), Glyoxal (material no. 128465-500G, batch no. STBH8032), Methylglyoxal (material no. M0252-250 ml, batch no. BCBT1161), and other carbonyl (material no. F8775-500 ml, batch no. MKCK0272)]. Glutaraldehyde used as a reference material. The protein crosslinking capability was measured as their reactivity with lysine residues on bovine serum albumin (FIG. 6). In the Protein Crosslinking method, experiments were conducted at 30 mM working concentration of individual carbonyls and at 70° C.
Two IsoFin Products were made using two different types of natural liquid smoke flavors (CS9 and MA45GF) and were compared for total carbonyls and protein crosslinking capability. Among the two, the IsoFin B (CS9 based) was made with 50% CS9 (lot #0218938702, Zesti Smoke, Kerry America Region, Monterey, Tenn.) and 50% Homestyle vinegar flavor (IsoAge Technologies, Springfield, Mo.), whereas the IsoFin B (MA45GF based) was made with 9% MA45GF (lot #0214042186, Red Arrow, Kerry America Region, Manitowoc, Wis.)), 1% 300 grain vinegar (lot #09918209), and 90% Homestyle vinegar flavor. […]

Sequence of lysine residues on bovine serum albumin (P02769 25-607): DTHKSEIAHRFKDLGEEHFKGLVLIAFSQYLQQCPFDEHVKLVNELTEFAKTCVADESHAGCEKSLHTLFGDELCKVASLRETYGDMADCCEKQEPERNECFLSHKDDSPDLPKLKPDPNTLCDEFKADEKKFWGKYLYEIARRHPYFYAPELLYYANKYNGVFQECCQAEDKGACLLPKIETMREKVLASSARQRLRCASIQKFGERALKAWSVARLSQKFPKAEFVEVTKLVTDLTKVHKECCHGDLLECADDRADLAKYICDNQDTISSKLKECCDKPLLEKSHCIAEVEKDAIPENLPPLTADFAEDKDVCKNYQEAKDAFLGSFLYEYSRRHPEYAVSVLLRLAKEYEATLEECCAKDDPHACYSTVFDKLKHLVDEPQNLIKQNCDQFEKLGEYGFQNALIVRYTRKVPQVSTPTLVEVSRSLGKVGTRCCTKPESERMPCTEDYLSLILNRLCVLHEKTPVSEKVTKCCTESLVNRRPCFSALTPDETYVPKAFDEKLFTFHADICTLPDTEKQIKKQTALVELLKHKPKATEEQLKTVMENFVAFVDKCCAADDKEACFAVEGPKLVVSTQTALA

reactivity with lysine (protein crosslinking capability): maximum reactivity with lysine
Compound: O=CCO [glycolaldehyde, Glycolaldehyde]
